How the values were obtained:
[1] = system: pseudomonas aeruginosa (ATCC 15442); assay: 27 hour kinetic growth assay using a redox active dye; assay type: cell-based; settings: 25 uL test material in TSB, 27 hour kinetic assay
Method: (§1) Conjugated linoleic acid (80%) and conjugated linoleic acid diglyceride, containing both trans and cis isomers, were used to show persisting reduction of bacterial growth over several hours. Each measure was accomplished in separate wells. Each well received a unique combination of the following, including controls. Conjugated linoleic acid 80% and conjugated linoleic acid diglyceride, 25 uL were each separately added to Trypticase Soy Broth (TSB). To each solution was added 75 uL TSB plus 50 uL staphylococcus aureus (ATCC 6366) or pseudomonas aeruginosa (ATCC 15442). This was then entered into a 27 hour kinetic assay using a redox active dye to monitor growth. Appropriate controls were simultaneously run.

[2] = system: staphylococcus aureus (ATCC 6366); assay: as above; assay type: cell-based; settings: 25 uL test material in TSB, 27 hour kinetic assay
Method: as §1

[3] = direct application of oil to skin with acne; assay type: in vivo; settings: applied twice daily directly to skin; after 24 hours
From the text: CLA free fatty acid oil was applied twice daily directly to skin with acne.

| Substance | reduction in bacterial growth beginning at [1] [min] | reduction in bacterial growth sustained for [1] [h] | reduction in bacterial growth beginning at [2] [min] | reduction in bacterial growth sustained for [2] [h] | size and redness of the acne [3] |
| --- | --- | --- | --- | --- | --- |
| conjugated linoleic acid [conjugated linoleic free fatty acid] | 200 | 27 | 30 | 20 | substantial reduction in the size and redness of the acne |
| conjugated linoleic acid diglyceride [conjugated linoleic diglyceride] | 200 | 27 | 30 | 20 |  |
